Converted amounts (≈) assume the structure as drawn. “And” between values parts separate entries of the source, which are not always exact repeats. Equal values may be shown once. The source made the active and inactive calls. No cut-off for these calls is given here.
How the values were obtained:
Staphylococcus aureus [1] = experiment: Antibacterial activity against vancomycin-intermediate Staphylococcus aureus Mu50 incubated for 24 hrs by broth microdilution method; format: functional
Staphylococcus aureus [2] = experiment: Antibacterial activity against vancomycin-susceptible methicillin-susceptible Staphylococcus aureus Newman incubated for 24 hrs by broth microdilution method; format: functional
Staphylococcus aureus [3] = experiment: Antimicrobial activity against methicillin-resistant Staphylococcus aureus USA300 LAC incubated for 24 hrs by broth microdilution method; format: functional
[4] = Cytotoxicity against human L02 cells after 72 hrs by CCK-8 assay; format: toxicity, cell-based
Enterococcus faecalis [5] = experiment: Antibacterial activity against vancomycin-resistant, teicoplanin resistant Enterococcus faecalis HS0649 incubated for 24 hrs by broth microdilution method; format: functional
Staphylococcus aureus [6] = experiment: Antibiofilm activity against methicillin-resistant Staphylococcus aureus USA300 LAC assessed as decrease in biofilm formation at 0.0625 ug/ml measured by crystal violet staining assay; format: functional, organism-based; conditions: dose 0.0625 µg/ml
[7] = Selectivity index, ratio of IC50 for L02 cell cytotoxicity over MIC for vancomycin-susceptible methicillin-susceptible Staphylococcus aureus Newman; format: toxicity; conditions: human, L02 cells
[8] = Metabolic stability in mouse liver microsomes assessed metabolic bioavailability at 0.1 uM in presence of NADPH measured by LC-MS/MS analysis; format: ADME, Microsome; conditions: read-out: Stability
Enterococcus faecalis [9] = experiment: Antibacterial activity against vancomycin-resistant, teicoplanin sensitive Enterococcus faecalis VanB01 incubated for 24 hrs by broth microdilution method; format: functional
Staphylococcus aureus [10] = experiment: Antimicrobial activity against methicillin-resistant Staphylococcus aureus USA400 MW2 incubated for 24 hrs by broth microdilution method; format: functional
Staphylococcus aureus [11] = experiment: Antimicrobial activity against methicillin and linezoid-resistant Staphylococcus aureus NRS271 incubated for 24 hrs by broth microdilution method; format: functional
Enterococcus faecalis [12] = experiment: Antibacterial activity against vancomycin-resistant, teicoplanin resistant Enterococcus faecalis HS06188 incubated for 24 hrs by broth microdilution method; format: functional
Staphylococcus aureus [13] = experiment: Antimicrobial activity against methicillin-resistant Staphylococcus aureus NRS100 incubated for 24 hrs by broth microdilution method; format: functional
Enterococcus faecalis [14] = experiment: Antibacterial activity against vancomycin-resistant, teicoplanin sensitive Enterococcus faecalis HS08257 incubated for 24 hrs by broth microdilution method; format: functional
[15] = Metabolic stability in monkey liver microsomes assessed metabolic bioavailability at 0.1 uM in presence of NADPH measured by LC-MS/MS analysis; format: ADME, Macaca mulatta, Microsome; conditions: rhesus monkey, read-out: Stability
[16] = Metabolic stability in human liver microsomes assessed metabolic bioavailability at 0.1 uM in presence of NADPH measured by LC-MS/MS analysis; format: ADME, Microsome; conditions: read-out: Stability
[17] = Metabolic stability in dog liver microsomes assessed metabolic bioavailability at 0.1 uM in presence of NADPH measured by LC-MS/MS analysis; format: ADME, Canis lupus familiaris, Microsome; conditions: read-out: Stability
Enterococcus faecalis [18] = experiment: Antibacterial activity against vancomycin-resistant, teicoplanin sensitive Enterococcus faecalis HS0847 incubated for 24 hrs by broth microdilution method; format: functional

Structure (SMILES)	MIC (Staphylococcus aureus [1])	MIC (Staphylococcus aureus [2])	MIC (Staphylococcus aureus [3])	other results
N#Cc1cc(C(=O)c2cc(Cl)cc(Cl)c2O)[nH]n1	2 µg/mL (≈ 7.09 µM)	2 µg/mL (≈ 7.09 µM)	2 µg/mL (≈ 7.09 µM)	–
Cc1n[nH]c2c(=O)c3c(O)c(Cl)cc(Cl)c3oc12	> 256 µg/mL	> 256 µg/mL	> 256 µg/mL	–
O=C(O)c1n[nH]c2c(=O)c3c(O)c(Cl)cc(Cl)c3oc12	> 256 µg/mL	> 256 µg/mL	> 256 µg/mL	–
COC(=O)c1n[nH]c2c(=O)c3c(O)c(Cl)cc(Cl)c3oc12	16 µg/mL (≈ 48.6 µM)	4 µg/mL (≈ 12.2 µM)	16 µg/mL (≈ 48.6 µM)	–
O=c1c2ccccc2sc2c(C(F)(F)F)n[nH]c12	> 256 µg/mL	> 256 µg/mL	> 256 µg/mL	–
O=C(c1cc(C(F)(F)F)n[nH]1)c1cc(F)c(F)cc1O	1 µg/mL (≈ 3.42 µM)	0.5 µg/mL (≈ 1.71 µM)	0.5 µg/mL (≈ 1.71 µM)	–
N#Cc1n[nH]c2c(=O)c3c(O)c(Cl)cc(Cl)c3oc12	8 µg/mL (≈ 27 µM)	4 µg/mL (≈ 13.5 µM)	8 µg/mL (≈ 27 µM)	–
O=C(O)c1cn(C2CC2)c2cc(N3CCNCC3)c(F)cc2c1=O [CIPROFLOXACIN]	32 µg/mL (≈ 96.6 µM)	0.25 µg/mL (≈ 0.754 µM)	2 µg/mL (≈ 6.04 µM)	IC50 at 72 h [4]: 12.2 µM and 4.05 µg/mL
O=C1c2ccccc2S(=O)(=O)c2c(C(F)(F)F)n[nH]c21	> 256 µg/mL	> 256 µg/mL	> 256 µg/mL	–
Cc1cc(C(=O)c2cc(C#N)n[nH]2)c(O)cc1F	0.25 µg/mL (≈ 1.02 µM)	0.5 µg/mL (≈ 2.04 µM)	0.5 µg/mL (≈ 2.04 µM)	–
O=C(c1cc(C(F)(F)F)n[nH]1)c1cc(Cl)c(Cl)cc1O	0.0312 µg/mL (≈ 0.0961 µM)	0.0625 µg/mL (≈ 0.192 µM)	0.0625 µg/mL (≈ 0.192 µM)	MIC (Enterococcus faecalis [5]): 0.5 µg/mL (≈ 1.54 µM); Activity (Staphylococcus aureus [6]): Active; selectivity ratio [7]: > 13; Fh at 0.1 µM [8]: 10.1%; MIC (Enterococcus faecalis [9]): 0.5 µg/mL (≈ 1.54 µM); MIC (Staphylococcus aureus [10]): 0.25 µg/mL (≈ 0.769 µM); MIC (Staphylococcus aureus [11]): > 128 µg/mL; MIC (Enterococcus faecalis [12]): > 128 µg/mL; MIC (Staphylococcus aureus [13]): 0.5 µg/mL (≈ 1.54 µM); MIC (Enterococcus faecalis [14]): < 0.125 µg/mL; Fh at 0.1 µM [15]: 28.6%; Fh at 0.1 µM [16]: 42%; Fh at 0.1 µM [17]: 7.07%; IC50 at 72 h [4]: 2.57 µM and 0.84 µg/mL; MIC (Enterococcus faecalis [18]): 0.25 µg/mL (≈ 0.769 µM)
N#Cc1n[nH]c2c(=O)c3ccccc3sc12	32 µg/mL (≈ 141 µM)	8 µg/mL (≈ 35.2 µM)	32 µg/mL (≈ 141 µM)	–
N#Cc1n[nH]c2c(=O)c3c(O)c(Cl)cc(Cl)c3sc12	2 µg/mL (≈ 6.41 µM)	2 µg/mL (≈ 6.41 µM)	2 µg/mL (≈ 6.41 µM)	–
N#Cc1cc(C(=O)c2cc(Cl)c(Cl)cc2O)[nH]n1	0.25 µg/mL (≈ 0.886 µM)	0.25 µg/mL (≈ 0.886 µM)	0.25 µg/mL (≈ 0.886 µM)	MIC (Enterococcus faecalis [5]): 0.5 µg/mL (≈ 1.77 µM); Activity (Staphylococcus aureus [6]): Active; selectivity ratio [7]: > 12; Fh at 0.1 µM [8]: 10.2%; MIC (Enterococcus faecalis [9]): 1 µg/mL (≈ 3.55 µM); MIC (Staphylococcus aureus [10]): < 0.125 µg/mL; MIC (Staphylococcus aureus [11]): 1 µg/mL (≈ 3.55 µM); MIC (Enterococcus faecalis [12]): > 128 µg/mL; MIC (Staphylococcus aureus [13]): 0.5 µg/mL (≈ 1.77 µM); MIC (Enterococcus faecalis [14]): 0.25 µg/mL (≈ 0.886 µM); Fh at 0.1 µM [15]: 85.6%; Fh at 0.1 µM [16]: 69.7%; Fh at 0.1 µM [17]: 9.79%; IC50 at 72 h [4]: 10.7 µM and 3.02 µg/mL; MIC (Enterococcus faecalis [18]): 0.5 µg/mL (≈ 1.77 µM)
O=C1c2[nH]nc(C(F)(F)F)c2S(=O)(=O)c2c(Cl)cc(Cl)c(O)c21	256 µg/mL (≈ 661 µM)	128 µg/mL (≈ 331 µM)	256 µg/mL (≈ 661 µM)	–
Cc1cc(C(=O)c2cc(C(F)(F)F)n[nH]2)c(O)cc1F	1 µg/mL (≈ 3.47 µM)	0.25 µg/mL (≈ 0.867 µM)	0.25 µg/mL (≈ 0.867 µM)	–
CN[C@H](CC(C)C)C(=O)N[C@H]1C(=O)N[C@@H](CC(N)=O)C(=O)N[C@H]2C(=O)N[C@H]3C(=O)N[C@H](C(=O)N[C@H](C(=O)O)c4cc(O)cc(O)c4-c4cc3ccc4O)[C@H](O)c3ccc(c(Cl)c3)Oc3cc2cc(c3O[C@@H]2O[C@H](CO)[C@@H](O)[C@H](O)[C@H]2O[C@H]2C[C@](C)(N)[C@H](O)[C@H](C)O2)Oc2ccc(cc2Cl)[C@H]1O [VANCOMYCIN]	8 µg/mL (≈ 5.52 µM)	–	–	MIC (Enterococcus faecalis [5]): 0.5 µg/mL (≈ 0.345 µM); MIC (Enterococcus faecalis [9]): 0.25 µg/mL (≈ 0.173 µM); MIC (Staphylococcus aureus [10]): < 0.125 µg/mL; MIC (Enterococcus faecalis [12]): 2 µg/mL (≈ 1.38 µM); MIC (Enterococcus faecalis [14]): < 0.125 µg/mL; IC50 at 72 h [4]: > 30 µM and > 43 µg/mL; MIC (Enterococcus faecalis [18]): 0.25 µg/mL (≈ 0.173 µM)
NC(=O)c1n[nH]c2c(=O)c3c(O)c(Cl)cc(Cl)c3oc12	> 256 µg/mL	> 256 µg/mL	> 256 µg/mL	–
N#Cc1cc(C(=O)c2cc(Cl)c(F)cc2O)[nH]n1	0.5 µg/mL (≈ 1.88 µM)	0.5 µg/mL (≈ 1.88 µM)	0.5 µg/mL (≈ 1.88 µM)	–
O=c1c2[nH]nc(C(F)(F)F)c2oc2c(Cl)cc(Cl)c(O)c12	1 µg/mL (≈ 2.95 µM)	1 µg/mL (≈ 2.95 µM)	2 µg/mL (≈ 5.9 µM)	–
N#Cc1n[nH]c2c1S(=O)(=O)c1ccccc1C2=O	> 256 µg/mL	> 256 µg/mL	> 256 µg/mL	–
O=C(c1cc(C(F)(F)F)n[nH]1)c1cc(Cl)c(F)cc1O	0.25 µg/mL (≈ 0.81 µM)	0.25 µg/mL (≈ 0.81 µM)	0.25 µg/mL (≈ 0.81 µM)	MIC (Enterococcus faecalis [5]): 1 µg/mL (≈ 3.24 µM); MIC (Enterococcus faecalis [9]): 1 µg/mL (≈ 3.24 µM); MIC (Staphylococcus aureus [10]): 0.25 µg/mL (≈ 0.81 µM); MIC (Staphylococcus aureus [11]): > 128 µg/mL; MIC (Enterococcus faecalis [12]): > 128 µg/mL; MIC (Staphylococcus aureus [13]): 0.25 µg/mL (≈ 0.81 µM); MIC (Enterococcus faecalis [14]): 0.5 µg/mL (≈ 1.62 µM); MIC (Enterococcus faecalis [18]): 0.5 µg/mL (≈ 1.62 µM)
O=c1c2[nH]nc(C(F)(F)F)c2sc2c(Cl)cc(Cl)c(O)c12	1 µg/mL (≈ 2.82 µM)	2 µg/mL (≈ 5.63 µM)	2 µg/mL (≈ 5.63 µM)	–

From ChEMBL document CHEMBL5154852, “Design, synthesis, and biological evaluations of substituted pyrazoles as pyrrolomycin analogues against staphylococcal biofilm” (Eur J Med Chem, 2022)
